Drawing on ChEMBL document CHEMBL1126576, “Structure-activity relationships of the antimalarial agent artemisinin. 1. Synthesis and comparative molecular field analysis of C-9 analogs of artemisinin and 10-deoxoartemisinin” (1993), this text covers Relative activity for 53 compounds.

The source made the active and inactive calls. The calls are words filed in the database; no cut-off is given here.

The test system of assay [1] is Plasmodium falciparum. Nature of the assay: Relative activity compared to artemisinin against Plasmodium falciparum Indochina W2. The class given is functional.
Assay [2] deals with Plasmodium falciparum. In words: Relative activity compared to artemisinin against Plasmodium falciparum Sierra Leone D6. It counts as functional.
The test system of assay [3] is Plasmodium falciparum. In words: Relative activity compared to artemisinin against Plasmodium falciparum Indochina W-2; Not active. The class given is functional, organism-based.
The subject of assay [4] is Plasmodium falciparum. In words: Relative activity compared to artemisinin against Plasmodium falciparum D6 (Sierra Leone); Not active. The class given is functional, organism-based.
Assay [5] has as its system Plasmodium falciparum. Nature of the assay: In vitro relative potency against Plasmodium falciparum Sierra Leone D6. It counts as functional.
The test system of assay [6] is Plasmodium falciparum. Nature of the assay: Relative activity against Plasmodium falciparum W2 Indochina compared to artemisinin. It counts as functional.
The subject of assay [7] is Plasmodium falciparum. Nature of the assay: Relative activity against Plasmodium falciparum D6 (Sierra Leone) compared to artemisinin. It counts as functional.

Take `CCCCCC[C@H]1C(=O)O[C@@H]2O[C@@]3(C)CC[C@H]4[C@H](C)CC[C@@H]1[C@@]24O3`: the Relative activity with Plasmodium falciparum [1] worked out at 0.02; in the assay on Plasmodium falciparum [2], 0.07.
Regarding `C[C@@H]1CC[C@H]2CC(=O)O[C@@H]3O[C@@]4(C)CC[C@@H]1[C@@]23O4`, the Relative activity result in the assay with Plasmodium falciparum [3] and in the assay on Plasmodium falciparum [4] was “inactive” each time.
In the case of `CC(C)CCC[C@H]1C(=O)O[C@@H]2O[C@@]3(C)CC[C@H]4[C@H](C)CC[C@@H]1[C@@]24O3`, the Relative activity entry with Plasmodium falciparum [3] and in the assay with Plasmodium falciparum [4] was “inactive” in each case.
In the assay on Plasmodium falciparum [5], `C[C@@H]1CC[C@H]2[C@](C)(Br)[C@@H](Nc3ccccc3)O[C@@H]3O[C@@]4(C)CC[C@@H]1[C@]32OO4` registered a Relative activity of 0.16.
Turning to `CC(C)C[C@H]1C(=O)O[C@@H]2O[C@@]3(C)CC[C@H]4[C@H](C)CC[C@@H]1[C@@]24OO3`, the Relative activity in the assay with Plasmodium falciparum [6] is reported as 0.24; in the assay with Plasmodium falciparum [7], 0.2.
`CC[C@H]1C(=O)O[C@@H]2O[C@@]3(C)CC[C@H]4[C@H](C)CC[C@@H]1[C@@]24OO3`: the Relative activity in the assay with Plasmodium falciparum [6] was determined as 12.26; with Plasmodium falciparum [7] it was 6.42.
For the compound `CC1CCC2C(CCCCc3ccccc3)C(=O)OC3OC4(C)CCC1C32O4` (configuration not stated), the Relative activity entry with Plasmodium falciparum [3] and in the assay with Plasmodium falciparum [4] was “inactive” each time.
As to `CCCC[C@H]1C(=O)O[C@@H]2OC(C)(C)OO[C@@]23CCCC[C@@H]13`, the Relative activity in the assay with Plasmodium falciparum [5] is recorded as 0.1.
As to `CO[C@@H]1O[C@@]2(C)CC[C@H]3CCCC[C@]31OO2`, in the assay on Plasmodium falciparum [5], the Relative activity is reported as 0.13.
On to `CCCCCCCCCCCCCC[C@H]1C(=O)O[C@@H]2O[C@@]3(C)CC[C@H]4[C@H](C)CC[C@@H]1[C@@]24O3`, for which the Relative activity in the assay on Plasmodium falciparum [6] and with Plasmodium falciparum [7] was 0.05 each time.
With `CO[C@]1(C)CC[C@H]2[C@H](C)CCC[C@]2(C=O)OO1`, the Relative activity in the assay on Plasmodium falciparum [5] is listed as 0.001.
For the compound `C[C@@H]1CC[C@H]2C(C)(C)C(=O)O[C@@H]3O[C@@]4(C)CCC1[C@]32OO4` (some centres not stated), the Relative activity in the assay on Plasmodium falciparum [6] is 0.006; in the assay on Plasmodium falciparum [7], 0.02.
For `C[C@@H]1CC[C@H]2[C@@H](CCCc3ccccc3)C(=O)O[C@@H]3O[C@@]4(C)CC[C@@H]1[C@]32OO4`, the Relative activity with Plasmodium falciparum [6] was 4.45; with Plasmodium falciparum [7], 6.11.
For `CCCCCC[C@H]1C(=O)O[C@@H]2O[C@@]3(C)CC[C@H]4[C@H](C)CC[C@@H]1[C@@]24OO3`, the Relative activity in the assay on Plasmodium falciparum [6] came to 5.5; in the assay on Plasmodium falciparum [7], 4.67.
In the assay with Plasmodium falciparum [5], `C[C@H]1CO[C@@H]2O[C@@]3(C)CC[C@H]4CCC[C@@H]1[C@]42OO3` returned a Relative activity of 4.02.
Regarding `CO[C@H]1O[C@@]2(C)CC[C@H]3CCCC[C@]31OO2`, the Relative activity with Plasmodium falciparum [5] is recorded as 0.11.
Take `CCCCC[C@H]1C(=O)O[C@@H]2O[C@@]3(C)CC[C@H]4[C@H](C)CC[C@@H]1[C@@]24OO3`: the Relative activity was 8.67 with Plasmodium falciparum [6] and 3.67 in the assay with Plasmodium falciparum [7].
The corresponding values for `CCCCCCCCCCCCCC[C@H]1C(=O)O[C@@H]2O[C@@]3(C)CC[C@H]4[C@H](C)CC[C@@H]1[C@@]24OO3` are 0.001 and 0.001.
Compound `C[C@@H]1CC[C@H]2[C@@H](C)C(=O)O[C@@H]3OC(C)(C)OO[C@@]32[C@H]1C` had a Relative activity in the assay on Plasmodium falciparum [5] of 0.4.
`C[C@@H]1CC[C@H]2[C@](C)(Br)[C@@H](Nc3cccc(F)c3)O[C@@H]3O[C@@]4(C)CC[C@@H]1[C@]32OO4` returned a Relative activity in the assay with Plasmodium falciparum [5] of 3.5.
On to `C[C@@H]1CC[C@H]2[C@](C)(Br)[C@@H](Nc3ccccn3)O[C@@H]3O[C@@]4(C)CC[C@@H]1[C@]32OO4`, for which the Relative activity in the assay with Plasmodium falciparum [5] came to 0.02.
`CCCC[C@H]1C(=O)O[C@@H]2O[C@@]3(C)CC[C@H]4[C@H](C)CC[C@@H]1[C@@]24O3`: the Relative activity result with Plasmodium falciparum [3] and in the assay on Plasmodium falciparum [4] was “inactive” throughout.
`CC(C)CC[C@H]1C(=O)O[C@@H]2O[C@@]3(C)CC[C@H]4[C@H](C)CC[C@@H]1[C@@]24O3`: the Relative activity is reported as 0.14 with Plasmodium falciparum [1] and 0.13 with Plasmodium falciparum [2].
With `CC12CCC3CCCC4CC(=O)OC(O1)C34OO2` (configuration not stated), the figures for the Relative activity in the assay on Plasmodium falciparum [6] and in the assay with Plasmodium falciparum [7] were 0.96 and 0.24, respectively.
In the same order, the values of `CCC[C@H]1C(=O)O[C@@H]2O[C@@]3(C)CC[C@H]4[C@H](C)CC[C@@H]1[C@@]24OO3` are 12.25 and 5.5.
On to `CC(C)CC[C@H]1C(=O)O[C@@H]2O[C@@]3(C)CC[C@H]4[C@H](C)CC[C@@H]1[C@@]24OO3`, for which the Relative activity with Plasmodium falciparum [6] turned out to be 0.98; in the assay with Plasmodium falciparum [7] it was 1.57.
Take `CC(C)C[C@H]1C(=O)O[C@@H]2O[C@@]3(C)CC[C@H]4[C@H](C)CC[C@@H]1[C@@]24O3`: the Relative activity result in the assay with Plasmodium falciparum [3] and with Plasmodium falciparum [4] was “inactive” in each case.
Regarding `CC1(C)OO[C@]23CCCC[C@H]2CC(=O)O[C@@H]3O1`, in the assay with Plasmodium falciparum [5], the Relative activity turned out to be 0.01.
Regarding `C=CC[C@H]1C(=O)O[C@@H]2O[C@@]3(C)CC[C@H]4[C@H](C)CC[C@@H]1[C@@]24OO3`, the Relative activity in the assay on Plasmodium falciparum [6] is listed as 0.72; in the assay on Plasmodium falciparum [7], 0.31.
`C[C@@H]1CC[C@H]2C(C)(C)C(=O)O[C@@H]3O[C@@]4(C)CC[C@@H]1[C@]32O4`: the Relative activity result with Plasmodium falciparum [3] and in the assay with Plasmodium falciparum [4] was “inactive” in each case.
On to `O=C1C=C2CCCC3CC4OO[C@@]23[C@H](O1)O4` (single isomer, unassigned), for which the Relative activity with Plasmodium falciparum [6] and in the assay with Plasmodium falciparum [7] was 0.02 throughout.
For the compound `C[C@@H]1CC[C@H]2[C@@H](CC(=O)O)C(=O)O[C@@H]3O[C@@]4(C)CC[C@@H]1[C@]32OO4`, the Relative activity is listed as 0.003 with Plasmodium falciparum [6] and 0.002 with Plasmodium falciparum [7].
The compound `C[C@]12CC[C@H]3CCCC[C@@]3(OO1)[C@H](OCc1ccccc1)O2` had a Relative activity with Plasmodium falciparum [5] of 0.03.
As to `C[C@@H]1CC[C@H]2[C@H](C)C(=O)O[C@@H]3O[C@@]4(C)CC[C@@H]1[C@]32O4`, the Relative activity result in the assay on Plasmodium falciparum [3] and with Plasmodium falciparum [4] was “inactive” each time.
For `CC(C)[C@H]1C(=O)O[C@@H]2O[C@@]3(C)CC[C@H]4[C@H](C)CC[C@@H]1[C@@]24OO3`, the Relative activity with Plasmodium falciparum [6] turned out to be 0.84; with Plasmodium falciparum [7], 2.03.
As to `CCCCC[C@H]1C(=O)O[C@@H]2O[C@@]3(C)CC[C@H]4[C@H](C)CC[C@@H]1[C@@]24O3`, the Relative activity entry in the assay on Plasmodium falciparum [3] and in the assay with Plasmodium falciparum [4] was “inactive” throughout.
Consider `C[C@@H]1CC[C@H]2[C@@H](CCCCc3ccccc3)C(=O)O[C@@H]3O[C@@]4(C)CC[C@@H]1[C@]32OO4`, for which the results for the Relative activity in the assay on Plasmodium falciparum [6] and with Plasmodium falciparum [7] were 3 and 1.37, respectively.
In the same order, the values of `C/C=C\CC1C(=O)O[C@@H]2O[C@@]3(C)CC[C@H]4[C@H](C)CC[C@@H]1[C@@]24OO3` (single isomer, unassigned) are 0.07 and 0.09.
The corresponding values for `C[C@@H]1CC[C@H]2[C@H](C)C(=O)O[C@@H]3O[C@@]4(C)CC[C@@H]1[C@]32OO4` are 0.67 and 0.14.
As to `CCC[C@H]1C(=O)O[C@@H]2O[C@@]3(C)CC[C@H]4[C@H](C)CC[C@@H]1[C@@]24O3`, the Relative activity is on record as 0.07 in the assay on Plasmodium falciparum [1] and 0.06 with Plasmodium falciparum [2].
On to `C=CC[C@H]1C(=O)O[C@@H]2O[C@@]3(C)CC[C@H]4[C@H](C)CC[C@@H]1[C@@]24O3`, for which the Relative activity entry in the assay on Plasmodium falciparum [3] and in the assay on Plasmodium falciparum [4] was “inactive” each time.
Turning to `C[C@@H]1CC[C@H]2CC(=O)O[C@@H]3O[C@@]4(C)CC[C@@H]1[C@@]23OO4`, the Relative activity came out at 6.5 in the assay on Plasmodium falciparum [6] and 1.8 in the assay with Plasmodium falciparum [7].
As to `C[C@@H]1CC[C@H]2[C@@H](C)C(=O)O[C@@H]3O[C@@]4(C)CC[C@@H]1[C@]32O4` [DEOXYARTEMISININ], the Relative activity in the assay on Plasmodium falciparum [1] and in the assay with Plasmodium falciparum [2] was 0.001 in each case.
Take `CC[C@H]1C(=O)O[C@@H]2O[C@@]3(C)CC[C@H]4[C@H](C)CC[C@@H]1[C@@]24O3`: the Relative activity with Plasmodium falciparum [1] and in the assay on Plasmodium falciparum [2] was 0.001 each time.
Turning to `CCCC[C@H]1C(=O)O[C@@H]2O[C@@]3(C)CC[C@H]4[C@H](C)CC[C@@H]1[C@@]24OO3`, the figures for the Relative activity in the assay with Plasmodium falciparum [6] and with Plasmodium falciparum [7] were 1.28 and 0.96, respectively.
Regarding `C[C@@H]1CC[C@H]2[C@@H](CCc3ccccc3)C(=O)O[C@@H]3O[C@@]4(C)CC[C@@H]1[C@]32OO4`, the Relative activity with Plasmodium falciparum [6] is 1; with Plasmodium falciparum [7], 1.69.
Take `C[C@@H]1CC[C@H]2[C@@H](C)C(=O)O[C@@H]3O[C@@]4(C)CC[C@@H]1[C@]32OO4` [ARTEMISININ]: the Relative activity in the assay on Plasmodium falciparum [6] and with Plasmodium falciparum [7] was 1 throughout.
Compound `C[C@@H]1CCC[C@@]23CO[C@@](C)(CC[C@@H]12)OO3` gave a Relative activity in the assay on Plasmodium falciparum [5] of 0.37.
On to `C/C=C/CC1C(=O)O[C@@H]2O[C@@]3(C)CC[C@H]4[C@H](C)CC[C@@H]1[C@@]24OO3` (single isomer, unassigned), for which the Relative activity in the assay on Plasmodium falciparum [6] worked out at 0.22; in the assay with Plasmodium falciparum [7], 0.38.
As for `CC(C)CCC[C@H]1C(=O)O[C@@H]2O[C@@]3(C)CC[C@H]4[C@H](C)CC[C@@H]1[C@@]24OO3`, the Relative activity in the assay on Plasmodium falciparum [6] was 0.74; in the assay on Plasmodium falciparum [7] it was 0.31.
Take `CC1CCC2C(CCc3ccccc3)C(=O)OC3OC4(C)CCC1C32O4` (configuration not stated): the Relative activity result with Plasmodium falciparum [3] and in the assay with Plasmodium falciparum [4] was “inactive” in each case.
As for `C[C@@H]1CC[C@H]2[C@](C)(Br)[C@@H](Nc3nccs3)O[C@@H]3O[C@@]4(C)CC[C@@H]1[C@]32OO4`, the Relative activity in the assay on Plasmodium falciparum [5] came out at 0.62.
On to `C[C@@H]1CC[C@H]2[C@](C)(Br)[C@@H](Nc3ncccn3)O[C@@H]3O[C@@]4(C)CC[C@@H]1[C@]32OO4`, for which the Relative activity with Plasmodium falciparum [5] is 0.01.
